These are literature values, as cited in patent publication US6689394B2, “Removal of ectoparasites” (Schering-Plough HealthCare Products, Inc., priority 2001, dated 2004).

This series concerns head lice. To be noted: comparison of published results for topical pesticidal treatments.

For the compound `CC1(C)C(C=C(Cl)Cl)C1C(=O)OCc1cccc(Oc2ccccc2)c1` (stereo not shown) [Permethrin], the “evidence of clinical efficacy” value is “sufficient evidence of efficacy”.
